Measurements reported in PubChem BioAssay (NCI).
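Method: 48-hour compound exposure of cells in 96-well plates, five concentrations, linear interpolation of endpoints. Here, GI50 denotes the concentration required for 50% inhibition of growth. TGI is the concentration that stops growth completely.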

Experiments:
Experiment in all cases: growth of human tumour cells (NCI), 48 h
786-0 renal = tested on: 786-0 renal
A498 renal = tested on: A498 renal
A549 NSCLC = tested on: A549 NSCLC
ACHN renal = tested on: ACHN renal
BT-549 breast = tested on: BT-549 breast
CAKI-1 renal = tested on: CAKI-1 renal
CCRF-CEM leukemia = tested on: CCRF-CEM leukemia
COLO 205 colon = tested on: COLO 205 colon
DU-145 prostate = tested on: DU-145 prostate
EKVX NSCLC = tested on: EKVX NSCLC
HCC-2998 colon = tested on: HCC-2998 colon
HCT-116 colon = tested on: HCT-116 colon
HCT-15 colon = tested on: HCT-15 colon
HL-60(TB) leukemia = tested on: HL-60(TB) leukemia
HOP-62 NSCLC = tested on: HOP-62 NSCLC
HOP-92 NSCLC = tested on: HOP-92 NSCLC
HS 578T breast = tested on: HS 578T breast
HT29 colon = tested on: HT29 colon
IGROV1 ovarian = tested on: IGROV1 ovarian
K-562 leukemia = tested on: K-562 leukemia
KM12 colon = tested on: KM12 colon
LOX IMVI melanoma = tested on: LOX IMVI melanoma
M14 melanoma = tested on: M14 melanoma
MALME-3M melanoma = tested on: MALME-3M melanoma
MCF7 breast = tested on: MCF7 breast
MDA-MB-231 breast = tested on: MDA-MB-231 breast
MDA-MB-435 = tested on: MDA-MB-435
MOLT-4 leukemia = tested on: MOLT-4 leukemia
NCI-H226 lung = tested on: NCI-H226 lung
NCI-H23 lung = tested on: NCI-H23 lung
NCI-H460 lung = tested on: NCI-H460 lung
NCI-H522 lung = tested on: NCI-H522 lung
NCI/ADR-RES ovarian = tested on: NCI/ADR-RES ovarian
OVCAR-3 ovarian = tested on: OVCAR-3 ovarian
OVCAR-4 ovarian = tested on: OVCAR-4 ovarian
OVCAR-5 ovarian = tested on: OVCAR-5 ovarian
OVCAR-8 ovarian = tested on: OVCAR-8 ovarian
PC-3 prostate = tested on: PC-3 prostate
RPMI-8226 leukemia = tested on: RPMI-8226 leukemia
RXF 393 renal = tested on: RXF 393 renal
SF-268 CNS = tested on: SF-268 CNS
SF-295 CNS = tested on: SF-295 CNS
SF-539 CNS = tested on: SF-539 CNS
SK-MEL-2 melanoma = tested on: SK-MEL-2 melanoma
SK-MEL-28 melanoma = tested on: SK-MEL-28 melanoma
SK-MEL-5 melanoma = tested on: SK-MEL-5 melanoma
SK-OV-3 ovarian = tested on: SK-OV-3 ovarian
SN12C renal = tested on: SN12C renal
SNB-19 CNS = tested on: SNB-19 CNS
SNB-75 CNS = tested on: SNB-75 CNS
SR leukemia = tested on: SR leukemia
SW-620 colon = tested on: SW-620 colon
T-47D breast = tested on: T-47D breast
TK-10 renal = tested on: TK-10 renal
U251 CNS = tested on: U251 CNS
UACC-257 melanoma = tested on: UACC-257 melanoma
UACC-62 melanoma = tested on: UACC-62 melanoma
UO-31 renal = tested on: UO-31 renal

## CCO/C=N/C1=C(C#N)C(c2ccc(Cl)cc2)c2sc3c(C)cccc3c2O1 (stereo unspecified)
786-0 renal
  GI50: 976 nM
  TGI: 13900 nM
A498 renal
  GI50: 315 nM
  TGI: 1480 nM
A549 NSCLC
  GI50: 749 nM
  TGI: 15100 nM
ACHN renal
  GI50: 631 nM
  TGI: 15100 nM
BT-549 breast
  GI50: 1830 nM
  TGI: 11400 nM
CAKI-1 renal
  GI50: 532 nM
  TGI: 18500 nM
CCRF-CEM leukemia
  GI50: 371 nM
  TGI: 19400 nM
COLO 205 colon
  GI50: 1990 nM
  TGI: 6930 nM
DU-145 prostate
  GI50: 758 nM
  TGI: 14400 nM
EKVX NSCLC
  GI50: 604 nM
  TGI: 15600 nM
HCC-2998 colon
  GI50: 1510 nM
  TGI: 8520 nM
HCT-116 colon
  GI50: 448 nM
  TGI: 11100 nM
HCT-15 colon
  GI50: 423 nM
  TGI: 10200 nM
HL-60(TB) leukemia
  GI50: 329 nM
  TGI: 13900 nM
HOP-62 NSCLC
  GI50: 574 nM
  TGI: 18600 nM
HOP-92 NSCLC
  GI50: 188 nM
  TGI: 3760 nM
HS 578T breast
  GI50: 414 nM
  TGI: 11500 nM
HT29 colon
  GI50: 967 nM
  TGI: 11900 nM
IGROV1 ovarian
  GI50: 517 nM
  TGI: 15000 nM
K-562 leukemia
  GI50: 379 nM
  TGI: > 51300 nM
KM12 colon
  GI50: 551 nM
  TGI: 15700 nM
LOX IMVI melanoma
  GI50: 611 nM
  TGI: 13000 nM
M14 melanoma
  GI50: 528 nM
  TGI: 11900 nM
MALME-3M melanoma
  GI50: 689 nM
  TGI: 23400 nM
MCF7 breast
  GI50: 327 nM
  TGI: 11600 nM
MDA-MB-231 breast
  GI50: 2190 nM
  TGI: 15400 nM
MDA-MB-435
  GI50: 214 nM
  TGI: 516 nM
MOLT-4 leukemia
  GI50: 808 nM
  TGI: > 88900 nM
NCI-H226 lung
  GI50: 1150 nM
  TGI: 15400 nM
NCI-H23 lung
  GI50: 1330 nM
  TGI: 19200 nM
NCI-H460 lung
  GI50: 406 nM
  TGI: 7660 nM
NCI-H522 lung
  GI50: 398 nM
  TGI: 5050 nM
NCI/ADR-RES ovarian
  GI50: 438 nM
  TGI: 13400 nM
OVCAR-3 ovarian
  GI50: 409 nM
  TGI: 7850 nM
OVCAR-4 ovarian
  GI50: 1350 nM
  TGI: 19900 nM
OVCAR-5 ovarian
  GI50: 2370 nM
  TGI: 15500 nM
OVCAR-8 ovarian
  GI50: 1190 nM
  TGI: 15900 nM
PC-3 prostate
  GI50: 377 nM
  TGI: 12100 nM
RPMI-8226 leukemia
  GI50: 408 nM
  TGI: 15800 nM
RXF 393 renal
  GI50: 275 nM
  TGI: 1330 nM
SF-268 CNS
  GI50: 1490 nM
  TGI: 19400 nM
SF-295 CNS
  GI50: 288 nM
  TGI: 2470 nM
SF-539 CNS
  GI50: 379 nM
  TGI: 1810 nM
SK-MEL-2 melanoma
  GI50: 1060 nM
  TGI: 20800 nM
SK-MEL-28 melanoma
  GI50: 2480 nM
  TGI: 22400 nM
SK-MEL-5 melanoma
  GI50: 845 nM
  TGI: 10400 nM
SK-OV-3 ovarian
  GI50: 2700 nM
  TGI: 22100 nM
SN12C renal
  GI50: 865 nM
  TGI: 12600 nM
SNB-19 CNS
  GI50: 566 nM
  TGI: 16300 nM
SNB-75 CNS
  GI50: 234 nM
  TGI: 1410 nM
SR leukemia
  GI50: 542 nM
  TGI: > 47200 nM
SW-620 colon
  GI50: 451 nM
  TGI: 15800 nM
T-47D breast
  GI50: 462 nM
  TGI: 29200 nM
TK-10 renal
  GI50: 9740 nM
  TGI: 30000 nM
U251 CNS
  GI50: 609 nM
  TGI: 12700 nM
UACC-257 melanoma
  GI50: 12100 nM
  TGI: 32100 nM
UACC-62 melanoma
  GI50: 447 nM
  TGI: 14800 nM
UO-31 renal
  GI50: 562 nM
  TGI: 17100 nM
